Entries after “also recorded” stand apart in the source; their conditions may differ. Where a SMILES comes first, the peptide text is derived from it. Bridges are numbered along the chain shown (N, C = ends). [ ]: non-standard residue; d: D form. S5 = C=CCCC[C@](C)(N)C(=O)O
Tests used:
recombinant BCL-XLΔC = recombinant BCL-XLΔC (Homo sapiens, UniProt Q07817); assay: Fluorescence polarization direct binding of FITC-SAHBs to BCL-XLΔC; conditions: FPA
Procedure: (§1) Binding assays were performed as previously described (Pitter et al., Methods Enzymol 446, 387 (2008). Briefly, FITC-SAHB (50 nM) was added to serial dilutions of FPLC-purified recombinant protein in binding buffer (50 mM Tris, 100 mM NaCl, pH 8.0). For competition assays, serial dilutions of acetylated MCL-1 SAHBs were mixed with FITC-BAK SAHB (25 nM), followed by addition of MCL-1ΔNΔC (100 nM) diluted in binding buffer (50 mM Tris, 100 mM NaCl, pH 8.0). Multiwell plates were incubated in the dark at room temperature until equilibrium was reached and fluorescence polarization (mP units) was measured by microplate reader (SpectraMax, Molecular Devices). For direct binding experiments, dissociation constants (KD) were calculated by nonlinear regression analysis of dose-response curves using Prism software (Graphpad). For competition experiments, Ki values were determined by nonlinear regression analysis of dose-response curves using a one-site competition model.
(§2) Recombinant carboxy-terminal deleted anti-apoptotic proteins were expressed using the pGEX-4T vector, and purified as described for rMCL-1. The purified proteins were incubated with FITC-SAHBs, and binding affinities were analyzed by fluorescence polarization assay as described above. […] Optionally, design and optimization of tailored SAHB compounds for anti-apoptotic targeting also employed computational modeling.

recombinant BFL-1/A1ΔC = assay: Fluorescence polarization direct binding of FITC-SAHBs to BFL-1/A1ΔC; conditions: FPA
Procedure: as §1
(§3) Compounds that bound MCL-1 with high affinity were analyzed for MCL-1 selectivity by measuring SAHB affinities for recombinant BCL-XLΔC, BCL-WΔC and BFL-1/A1ΔC (FIG. 8B). […] The purified proteins were incubated with FITC-SAHBs, and binding affinities were analyzed by fluorescence polarization assay as described above. […]

recombinant BCL-wΔC = assay: Fluorescence polarization direct binding of FITC-SAHBs to BCL-wΔC; conditions: FPA
Procedure: as §1, §3

[1] = system: MCL-1ΔNΔC, BCL-2ΔC, BCL-XLΔC, BCL-wΔC and BFL-1/A1ΔC; assay: FPA selectivity across panel of anti-apoptotic proteins; type: binding; conditions: FPA against anti-apoptotic panel
Procedure: as §1
as §2, with “Compounds that bound MCL-1 with high affinity were analyzed for MCL-1 selectivity by measuring SAHB affinities for recombinant BCL-XLΔC, BCL-WΔC and BFL-1/A1ΔC (FIG. 8B). Recombinant” for “Recombinant”
After the experiments set forth above, further members of the library of stabilized alpha-helices of BCL-2 domains (SAHBs) modeled after the BH3 domains of BCL-2 family proteins were generated in order to identify potent and selective inhibitors of MCL-1. The native alpha-helical structure of BH3 domains was reinforced by incorporating non-natural amino acids containing olefin tethers at the (i, i+4) positions of the non-interacting face, followed by ruthenium catalyzed olefin metathesis to yield a panel of stapled BH3 domains (FIG. 7). Fluorescence polarization assays (FPA) were performed to measure the binding affinity of fluorescently labeled SAHBs for recombinant human MCL-1ΔNΔC (amino acids 172-320), a deletion construct that contains the BH3-binding pocket and affords enhanced expression, purity, and stability. […] To identify MCL-1-selective SAHBs, we first screened for recombinant BCL-XLΔC binding, which eliminated PUMA, BID, BIM, BOK, BAX, and BAK SAHBs and then for recombinant BFL1/A1ΔC binding, which eliminated NOXA SAHB.

[2] = biological target: T1, MCL-1/BAK interaction in U937 AML cells (Homo sapiens, UniProt Q07820); assay: MCL-1 immunoprecipitation / BAK western in U937 cells; type: cell-based; conditions: MCL-1 co-immunoprecipitation
T1 construct: MCL-1 over-expressing cancer cells, such as OPM2 multiple myeloma and U937 AML cells; endogenous in cells; host or cells: U937 AML cells
T1 sequence (Q07820 whole entry): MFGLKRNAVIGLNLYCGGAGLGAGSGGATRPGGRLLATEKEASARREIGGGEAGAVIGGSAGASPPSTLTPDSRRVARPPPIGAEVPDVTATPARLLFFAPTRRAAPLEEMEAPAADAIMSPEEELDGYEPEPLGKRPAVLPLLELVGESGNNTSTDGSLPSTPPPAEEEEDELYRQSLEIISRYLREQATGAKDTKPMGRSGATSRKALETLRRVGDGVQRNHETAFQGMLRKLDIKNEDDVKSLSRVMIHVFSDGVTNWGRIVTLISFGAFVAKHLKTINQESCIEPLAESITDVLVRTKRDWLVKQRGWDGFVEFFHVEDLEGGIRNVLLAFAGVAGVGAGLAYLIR
Procedure: After cellular lysis in 50 mM Tris (pH 7.4), 150 mM NaCl, 1 mM EDTA, 1% CHAPS and complete protease inhibitor pellet, cellular debris was pelleted at 14,000 g for 10 minutes at 4° C. The supernatant was incubated with pre-equilibrated protein A/G sepharose beads. The pre-cleared supernatant was treated with anti-MCL-1 antibody for 1.5 hours at 4° C. with rotation, followed by exposure to the protein A/G sepharose beads for 1 hour. The beads were pelleted and washed with lysis buffer for 10 minutes at 4° C. The washed beads were pelleted, heated to 90° C. for 10 minutes in SDS loading buffer, analyzed by SDS/PAGE, and immunoblotted for the known MCL-1 interactor, BAK. […] The SAHB-induced dissociation of MCL-1/BAK correlated with sensitization of U937 cells to apoptosis induction by a pro-apoptotic stimulus (see below).

U937 AML cells = assay: Cell viability by MTT assay, U937; type: cell-based; conditions: combined with low-dose BIM SAHB
Excerpt: A cell-based screen was used to evaluate the pro-apoptotic activity of MCL-1-targeting SAHBs in MCL-1-dependent hematologic cancer cell lines, including U937 (histiocytic lymphoma), Pfeiffer (diffuse large B-cell lymphoma), OCI-AML3 (acute myeloid leukemia), K562 (chronic myelogenous leukemia) and OPM-2 (multiple myeloma) cells.

Jurkat cells = assay: Live confocal microscopy of cellular uptake and localization; type: cell-based; conditions: FITC-SAHB
Procedure: In addition to FACS-based analysis, live confocal microscopy was used to visualize cellular uptake and intracellular localization of MCL-1 targeting SAHBs. For live confocal microscopy, Jurkat cells were incubated with FITC-SAHB and live cell organelle markers (e.g., dextran to label pinosomes, Mitotracker to label mitochondria). At defined time points (e.g., 4, 8, 12, and 24 hours), cells were washed twice with PBS, resuspended in PBS, wet mounted and imaged by confocal microscopy. […] Cell permeability and intracellular targeting can also be optimized through site-directed mutagenesis; for example, converting negatively charged residues to neutral or positively charged residues (e.g. SEQ ID NO: 39) can enhance cellular uptake as was previously reported (Bernal et al JACS, 2007).

Mcl-1 ΔNΔC [3] = biological target: T2, Mcl-1 ΔNΔC (Homo sapiens, UniProt Q07820); assay: Fluorescence polarization direct binding of FITC-SAHBs to MCL-1ΔNΔC; conditions: FPA
T2 construct: GST (N, cleaved yes); made in house; host or cells: Escherichia coli BL21 (DE3), pGEX-4T
T2 sequence (Q07820 172-327, stated change not applied): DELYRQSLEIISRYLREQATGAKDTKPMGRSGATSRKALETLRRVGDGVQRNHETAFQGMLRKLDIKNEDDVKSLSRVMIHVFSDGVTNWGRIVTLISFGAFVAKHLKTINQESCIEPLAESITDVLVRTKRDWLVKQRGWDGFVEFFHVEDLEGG
Procedure: as §1
To measure the binding activity of SAHBs for MCL-1, fluorescence polarization binding assays were performed (FIG. 8). […] Fluorescence polarization was measured on a BMG POLARstar Optima or Spectramax and dissociation constants determined by nonlinear regression analysis using Prism software 4.0 (Graphpad) (FIG. 8). […]

Mcl-1 ΔNΔC [4] = biological target: T2, Mcl-1 ΔNΔC; assay: MCL-1 Specific Binders | Mcl-1 ΔNΔC
Excerpt: Table printed on a drawing sheet, FIGURE 9 A
Head of the field: MCL-1 Specific Binders | Mcl-1 ΔNΔC
(A) illustrates a table of KD values for MCL-1-specific and pan-anti-apoptotic binding SAHBs.
First copying reader's note: KD values with their ± error in the same cell; each column is one anti-apoptotic target protein.
Where the first naming reader finds the target: head: Mcl-1 ΔNΔC

Chain of recombinant BCL-XLΔC (Q07817 1-209, stated change not applied): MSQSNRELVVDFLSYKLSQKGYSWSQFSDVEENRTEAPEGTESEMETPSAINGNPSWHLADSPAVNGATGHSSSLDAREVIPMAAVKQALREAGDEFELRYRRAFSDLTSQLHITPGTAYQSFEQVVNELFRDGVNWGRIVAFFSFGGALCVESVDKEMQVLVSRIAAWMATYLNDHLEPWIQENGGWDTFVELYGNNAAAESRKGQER

| Molecule | BCL-XL binding (recombinant BCL-XLΔC) | BFL-1/A1 binding (recombinant BFL-1/A1ΔC) | BCL-w binding (recombinant BCL-wΔC) | binding selectivity among anti-apoptotic proteins [1] | dissociation of MCL-1/BAK interaction in U937 cells [2] | sensitization of U937 cells to BIM SAHB (U937 AML cells) | cellular uptake and intracellular localization (Jurkat cells) | MCL-1ΔNΔC binding activity (Mcl-1 ΔNΔC [3]) | Kd (Mcl-1 ΔNΔC [4]) |
| --- | --- | --- | --- | --- | --- | --- | --- | --- | --- |
| CC(C)C[C@H](NC(=O)[C@H](CCCCN)NC(=O)[C@H](CCC(N)=O)NC(=O)[C@H](CCCNC(=N)N)NC(=O)[C@H](Cc1ccccc1)NC(=O)[C@H](CC(N)=O)NC(=O)[C@H](CC(C)C)NC(=O)[C@]1(C)CCCC=CCCC[C@](C)(NC(=O)[C@H](CCCNC(=N)N)NC(=O)[C@H](CC(C)C)NC(=O)[C@H](CCC(N)=O)NC(=O)[C@@H](NC(=O)[C@H](C)NC(=O)[C@H](CO)NC(=O)[C@H](CCC(=O)O)NC(=O)[C@@H](NC(=O)[C@H](CCC(=O)O)NC(=O)[C@@H](N)CC(C)C)C(C)C)[C@@H](C)O)C(=O)N[C@@H](Cc2ccccc2)C(=O)NCC(=O)N[C@@H](CC(=O)O)C(=O)N1)C(N)=O [NOXA SAHB] (H-LEVESATQLR[S5]FGD[S5]LNFRQKL-NH2; staple 11-15; C-terminus assumed) | did not engage | eliminated; also recorded: did not engage | did not engage | striking selectivity for MCL-1ΔNΔC; also recorded: selective for MCL-1 | disrupts the MCL-1/BAK interaction | dose-responsively sensitizes chemoresistant U937 AML cells to low-dose, pro-apoptotic BIM SAHB | striking fluorescence of pinosomes at early time points and subsequent colocalization with Mitotracker |  |  |
| CC(C)C[C@H](NC(=O)[C@H](C)NC(=O)[C@@H](N)CCCCN)C(=O)N[C@@H](CCC(=O)O)C(=O)N[C@H](C(=O)N[C@@H](CC(C)C)C(=O)N[C@@H](CCCNC(=N)N)C(=O)N[C@@]1(C)CCCC=CCCC[C@@](C)(C(=O)N[C@@H](Cc2ccccc2)C(=O)N[C@@H](CCC(N)=O)C(=O)N[C@@H](CCCNC(=N)N)C(=O)N[C@@H](CC(N)=O)C(=O)N[C@@H](Cc2c[nH]cn2)C(=O)N[C@@H](CCC(=O)O)C(=O)N[C@H](C(=O)N[C@@H](C)C(=O)N[C@@H](Cc2ccccc2)C(N)=O)[C@@H](C)O)NC(=O)[C@H](CC(=O)O)NC(=O)CNC(=O)[C@H](C(C)C)NC1=O)[C@@H](C)O [MCL-1 SAHBA V220F] | binds to both MCL-1 and BCL-XL |  |  |  |  |  |  | binds to both MCL-1 and BCL-XL |  |
| LEVESXTQLXRFGDKLNFRQKL [NOXA SAHBB] |  |  |  |  |  |  |  |  | 109 ± 32 nM |
